Assays:
[1] = biological target: GSK-3 alpha (Homo sapiens, UniProt P49840); conditions: Table 2; kind of potency not given; cited from earlier work
[2] = system: Lgr5 GFP(+) cochlear progenitor cells; experiment: Lgr5+ Assay / Stem Cell Proliferation Assay: proliferation and enrichment of Lgr5 GFP(+) cochlear progenitor cells; format: cell-based
Description: FIG. 1A is a graph depicting that the TAZ activator IBS008738 enhances Lgr5 GFP(+) progenitor cell proliferation when combined with CHIR in a background of growth factors. The y-axis depicts Lgr5 GFP(+) cell count and the x-axis depicts control conditions (background growth factors plus CHIR (EFI-C) or CHIR and VPA (EFI-CV)) versus CHIR+IBS008738 (EFI-C-IBS).
The y-axis depicts Lgr5 GFP(+) cell area and the x-axis depicts concentration of FHZ-000706.
FIG. 4A is a graph depicting that the TAZ activator FHZ-000706 enhances Lgr5 GFP(+) progenitor cell proliferation when combined with CHIR in a background of growth factors compared to CHIR alone.
The TAZ activator and the Wnt agonist (optionally in combination with an epigenetic agent) is capable of (i) forming a proliferation assay final cell population from a proliferation assay initial cell population over a proliferation assay time period in a stem cell proliferation assay, and/or (ii) forming a differentiation assay final cell population from a differentiation assay initial cell population over a differentiation assay time period in a Stem Cell differentiation assay wherein: (a) the proliferation assay initial cell population has (i) a Proliferation assay initial number of total cells, (ii) a proliferation assay initial number of Lgr5+ cells, (iii) a proliferation assay initial number of hair cells, (iv) a proliferation assay initial Lgr5+ cell fraction that equals the ratio of the proliferation assay initial number of Lgr5+ cells to the proliferation assay initial number of total cells, and (v) a proliferation assay initial hair cell fraction that equals the ratio of the proliferation assay initial number of hair cells to the proliferation assay initial number of total cells; (b) the proliferation assay final cell population has (i) a proliferation assay final number of total cells, (ii) a proliferation assay final number of Lgr5+ cells, (iii) a proliferation assay final number of hair cells, (iv) a proliferation assay final Lgr5+ cell fraction that equals the ratio of the proliferation assay final number of Lgr5+ cells to the proliferation assay final number of total cells and (v) a proliferation assay final hair cell fraction that equals the ratio of the proliferation assay final number of hair cells to the proliferation assay final number of total cells; (c) the differentiation assay initial cell population has (i) a differentiation assay initial number of total cells, (ii) a differentiation assay initial number of Lgr5+ cells, (iii) a differentiation assay initial number of hair cells, (iv) a differentiation assay initial Lgr5+ cell fraction that equals the ratio of the differentiation assay initial number of Lgr5+ cells to the differentiation assay initial number of total cells, and (v) a differentiation assay initial hair cell fraction that equals the ratio of the differentiation assay initial number of hair cells to the differentiation assay initial number of total cells; (d) the differentiation assay final cell population has (i) a differentiation assay final number of total cells, (ii) a differentiation assay final number of Lgr5+ cells, (iii) a differentiation assay final number of hair cells, (iv) a differentiation assay final Lgr5+ cell fraction that equals the ratio of the differentiation assay final number of Lgr5+ cells to the differentiation assay final number of total cells, and (v) a differentiation assay final hair cell fraction that equals the ratio of the differentiation assay final number of hair cells to the differentiation assay final number of total cells; (e) the proliferation assay final number of Lgr5+ cells exceeds the proliferation assay initial number of Lgr5+ cells by a factor of at least 10; and/or (f) the differentiation assay final number of hair cells is a non-zero number.

[3] = cited from earlier work; for Human In Vivo Conc: Table 8
[4] = system: cochlear progenitor cells (Lgr5+); experiment: Lgr5 cell expansion: quantification of cell proliferation, expansion and enrichment (flow cytometry / Celigo imaging); format: cell-based, mice; conditions: for enrichment of Lgr5+ progenitor cells / proliferation of Lgr5+ progenitor cells: TAZ activator 10 μM combined with Wnt agonist CHIR99021 (4 μM)
Method: Neonatal Lgr5-EGFP-IRES-Cre-ER mice (The Jackson Laboratory, strain 8875) were used to analyze the effects of small molecules on cochlear stem cell expansion (see Barker et al., Nature 449, 1003-7 (2007). This strain allowed for visualization and quantification of EGFP cells.
All animal studies were conducted under an approved institutional protocol per National Institutes of Health guidelines. Using neonatal animals, cochleae were dissected and the organ of Corti (sensory epithelium) was separated from the stria vascularis (ion transport epithelium) and the modiolus (nerve tissue). Epithelia were then collected and treated with TrypLE for 15-20 minutes to obtain single cells. The cells were then filtered ([…]) and suspended in a Matrigel (Corning) dome for 3D culture seeded at 0.5 cochlea per well.
Expansion of Lgr5 Cells: Cells were cultured in a 3D system and bathed in a serum free 1:1 mixture of DMEM and F12, supplemented with Glutamax (GIBCO), N2, B27 (Invitrogen), EGF (50 ng/mL; Chemicon), bFGF (50 ng/mL; Chemicon), IGF-1 (50 ng/mL; Chemicon), and small molecules for seven days. Media was changed every other day. Treatments were run in triplicate or quadruplicate.
Quantification of Cell Proliferation: Lgr5 cells were quantified after 7-10 days. Cell colonies were dissociated into single cells using TrypLE. The cells were then stained with propidium iodide (PI) and analyzed using a flow cytometer to count Lgr5-EGFP cells. The percentage of viable Lgr5 cells was plotted against the concentration in GraphPad Prism.
Organ of Corti are dissected from Lgr5 GFP(+) mice and dissociated as single cells as described above. Background media contains the same supplements and growth factors at the same concentrations as described above. Assays for image quantification are run in 96 well black plates with clear bottom with cells embedded in 50% Matrigel at cell density of 500 k cells/mL with 50 uL applied to each well. Cells are cultured for 7 days, with media change every 3-4 days. After 7 days of exposure to experimental conditions (e.g. small molecules), media is then removed from culture and replaced with media containing Hoescht at a 1:2000 dilution for a final concentration of 5 ug/mL (200 uL/well). The plate is then placed in a cell culture incubator at 37C for 1 hr. The media containing Hoescht is then removed and 200 uL/well of Cell Recovery Solution is added. The plate is then incubated on a plastic-wrapped (e.g. Saran wrap) CoolRack™ on ice for 80 minutes. Next, the plate is centrifuged for 5 minutes at 2300 RPMs (Beckman Coulter Allegra 6R centrifuge; GH 3.8A plate rotor; ambient temperature). Cells are then imaged on Celigo using 3 channels for brightfield, blue (Hoescht), and green (Lgr5 GFP). Proliferated cell colonies are captured as summed objects in the blue channel and the green channel. The green Lgr5 GFP(+) cell colonies are quantified for total GFP(+) cell area, while the blue hoescht stained colonies are quantified as total cell area. The % GFP(+) Cell Area is calculated using the total GFP(+) cell area divided by the total cell area multiplied by 100. All results are compiled and utilized to determine the effects of experimental conditions (e.g. small molecules) on the expansion and enrichment of the Lgr5 cell population.

[5] = system: HDAC; conditions: cited from earlier work
[6] = biological target: DOT1L (Homo sapiens, UniProt Q8TEK3); conditions: DOT1L inhibitors, Table 8; cited from earlier work
[7] = biological target: TAZ (Homo sapiens, UniProt Q9GZV5); conditions: Table 1, TAZ activators, literature cell concentration; cited from earlier work
[8] = 0-30 μM FHZ-000706 in a background of growth factors
[9] = 10 μM FHZ-000706 + 4 μM CHIR99021 in growth factors compared to CHIR alone
[10] = Table 1, TAZ activators, concentration range in the assay
[11] = TAZ activator alone, FIG. 3A, 3B
[12] = 10 μM IBS008738 combined with 4 μM CHIR99021 and 1 mM VPA in growth factors versus EFI-C or EFI-CV controls

Sequence of GSK-3 alpha (P49840 whole entry): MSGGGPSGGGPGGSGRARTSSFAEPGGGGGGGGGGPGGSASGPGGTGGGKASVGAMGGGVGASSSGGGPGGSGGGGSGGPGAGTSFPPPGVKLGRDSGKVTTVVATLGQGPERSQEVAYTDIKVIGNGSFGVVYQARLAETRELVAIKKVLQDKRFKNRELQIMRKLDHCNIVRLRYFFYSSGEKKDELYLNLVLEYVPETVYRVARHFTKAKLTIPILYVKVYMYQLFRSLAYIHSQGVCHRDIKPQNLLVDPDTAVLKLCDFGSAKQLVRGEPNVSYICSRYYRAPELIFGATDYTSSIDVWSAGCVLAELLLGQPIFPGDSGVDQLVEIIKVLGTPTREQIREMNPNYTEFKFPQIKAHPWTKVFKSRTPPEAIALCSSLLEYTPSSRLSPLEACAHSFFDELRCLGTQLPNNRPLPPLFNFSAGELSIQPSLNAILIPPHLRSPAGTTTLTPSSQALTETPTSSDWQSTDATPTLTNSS
Sequence of TAZ (Q9GZV5 whole entry): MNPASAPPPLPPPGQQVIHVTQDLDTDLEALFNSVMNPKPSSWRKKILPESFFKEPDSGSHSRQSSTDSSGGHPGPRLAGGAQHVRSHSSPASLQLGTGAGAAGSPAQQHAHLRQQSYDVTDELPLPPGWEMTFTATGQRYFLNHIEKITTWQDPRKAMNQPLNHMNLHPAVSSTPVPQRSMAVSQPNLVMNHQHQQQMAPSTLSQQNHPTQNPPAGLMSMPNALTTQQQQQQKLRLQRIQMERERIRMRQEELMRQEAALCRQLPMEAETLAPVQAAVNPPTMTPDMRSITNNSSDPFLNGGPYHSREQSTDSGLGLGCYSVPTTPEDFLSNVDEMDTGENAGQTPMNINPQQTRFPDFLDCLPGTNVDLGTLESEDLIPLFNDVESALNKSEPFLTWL
Sequence of DOT1L (Q8TEK3 whole entry, species assumed): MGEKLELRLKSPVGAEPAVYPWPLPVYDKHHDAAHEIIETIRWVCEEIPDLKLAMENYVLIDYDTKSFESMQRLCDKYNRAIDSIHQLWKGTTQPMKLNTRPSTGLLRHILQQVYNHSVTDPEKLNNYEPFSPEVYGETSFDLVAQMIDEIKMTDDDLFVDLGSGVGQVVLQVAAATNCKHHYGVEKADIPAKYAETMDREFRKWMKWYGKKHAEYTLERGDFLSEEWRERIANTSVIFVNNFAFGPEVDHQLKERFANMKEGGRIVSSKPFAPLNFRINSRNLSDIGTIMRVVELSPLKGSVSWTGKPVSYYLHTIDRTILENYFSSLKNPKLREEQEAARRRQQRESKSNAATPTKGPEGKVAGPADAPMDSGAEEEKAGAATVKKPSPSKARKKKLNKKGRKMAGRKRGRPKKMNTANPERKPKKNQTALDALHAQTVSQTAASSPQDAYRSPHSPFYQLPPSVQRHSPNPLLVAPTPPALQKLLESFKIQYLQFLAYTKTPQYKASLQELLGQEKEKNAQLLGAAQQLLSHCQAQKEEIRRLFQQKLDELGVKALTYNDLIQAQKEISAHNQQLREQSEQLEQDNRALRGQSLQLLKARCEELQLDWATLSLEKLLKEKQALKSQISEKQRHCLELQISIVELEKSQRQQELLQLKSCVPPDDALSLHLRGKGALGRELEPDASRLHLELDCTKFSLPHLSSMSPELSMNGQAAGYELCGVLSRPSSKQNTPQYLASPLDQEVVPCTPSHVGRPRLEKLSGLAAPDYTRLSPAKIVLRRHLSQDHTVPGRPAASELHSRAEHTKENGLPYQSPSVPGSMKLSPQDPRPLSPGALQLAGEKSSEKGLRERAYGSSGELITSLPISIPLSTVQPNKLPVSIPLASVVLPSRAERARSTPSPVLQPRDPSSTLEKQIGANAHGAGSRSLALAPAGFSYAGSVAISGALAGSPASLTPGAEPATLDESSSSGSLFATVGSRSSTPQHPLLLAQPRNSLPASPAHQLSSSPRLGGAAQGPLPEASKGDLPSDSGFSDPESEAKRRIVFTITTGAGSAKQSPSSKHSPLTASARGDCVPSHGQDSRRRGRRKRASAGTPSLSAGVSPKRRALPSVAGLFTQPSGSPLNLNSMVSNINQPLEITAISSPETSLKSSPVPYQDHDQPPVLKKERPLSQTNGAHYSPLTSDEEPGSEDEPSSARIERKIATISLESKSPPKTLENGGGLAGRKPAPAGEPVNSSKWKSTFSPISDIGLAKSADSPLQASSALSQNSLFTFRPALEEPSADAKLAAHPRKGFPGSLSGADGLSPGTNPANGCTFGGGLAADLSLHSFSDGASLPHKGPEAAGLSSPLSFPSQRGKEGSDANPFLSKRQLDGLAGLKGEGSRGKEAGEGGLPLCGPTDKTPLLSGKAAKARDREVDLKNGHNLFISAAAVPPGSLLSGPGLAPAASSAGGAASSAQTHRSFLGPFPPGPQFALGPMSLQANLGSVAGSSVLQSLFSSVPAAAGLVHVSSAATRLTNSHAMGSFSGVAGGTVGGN

N#Cc1ccc2[nH]c(O)c(-c3ccc(CN4CCOCC4)cn3)c2c1 [AZD 1080]
IC50 [1]: 6.9 nM

CS(=O)(=O)c1ccc(-c2cnc(NCc3ccco3)n3cnnc23)cc1 [EED226, reference compound]
Lgr5+ Assay ([2]; Table 7, result in words): Active

CC(C)N(CCCNC(=O)Nc1ccc(C(C)(C)C)cc1)C[C@H]1O[C@@H](n2ccc3c(N)ncnc32)[C@H](O)[C@@H]1O [EPZ004777]
Human In Vivo Conc [3]: 0.1 to 45 µM

Cc1ccc(-n2cnc(N)c2C(=O)c2ccccc2)cc1 [FHZ-000706]
Lgr5 GFP(+) cell area (enrichment), FIG. 3B [2, 8]: does not enrich
Lgr5 GFP(+) cell area (proliferation), FIG. 3A [2, 8]: does not proliferate
Lgr5 GFP(+) cell area (proliferation), FIG. 4A [2, 9]: enhances
Lgr5 GFP(+) cell area percentage (enrichment), FIG. 4B [2, 9]: enhances
Lgr5+ Assay [2, 10]: 1 to 100 µM
enrichment of Lgr5+ progenitor cells [4]: enriched
proliferation of Lgr5+ progenitor cells [4]: proliferate
enrichment of cochlear progenitor cells [4, 11]: does not promote
proliferation of cochlear progenitor cells [4, 11]: does not promote

c1ccc([C@@H]2C[C@H]2NC2CCNCC2)cc1 [GSK-LSD1]
Lgr5+ Assay ([2]; Table 9, with <= the upper end of a range printed over two lines): ≤ 50 µM

C=CCNc1nc(N)c(C(=O)c2ccc(Cl)s2)s1 [IBS008738, reference compound]
Lgr5 GFP(+) cell count (progenitor cell proliferation), FIG. 1A ([2]; 10 μM IBS008738 + 4 μM CHIR99021 in growth factors (50 ng/mL EGF, bFGF, IGR1) versus EFI-C or EFI-CV controls): enhances
Lgr5 GFP(+) cell proliferation percentage (enrichment), FIG. 1B ([2]; 10 μM IBS008738 + 4 μM CHIR99021 in growth factors versus EFI-C or EFI-CV controls): enhances
Lgr5 GFP(+) cell count (progenitor cell proliferation), FIG. 2A [2, 12]: does not enhance
Lgr5 GFP(+) cell proliferation percentage (enrichment), FIG. 2B [2, 12]: enhances
Lgr5+ Assay [2, 10]: 1.1 to 30 µM
enrichment of Lgr5+ progenitor cells [4]: enriched
proliferation of Lgr5+ progenitor cells [4]: proliferate

O=C1NC(=O)C(c2cnc3ccccn23)=C1c1cn2c3c(cc(F)cc13)CN(C(=O)N1CCCCC1)CC2 [LY2090314, 3-(9-fluoro-2-(piperidine-1-carbonyl)-1,2,3,4-tetrahydro-[1,4]diazepino[6,7,1-hi]indol-7-yl)-4-(imidazo[1,2-a]pyridin-3-yl)-1H-pyrrole-2,5-dione]
IC50 [1]: 2.1 nM

O=C([O-])CCCc1ccccc1.[Na+] [Na phenylbutyrate]
Class selectivity ([5]; Table 5, HDAC class): Class I >
IC50 ([5]; Table 5, HDAC Inhib 1, 2, 3, 8, kind of potency not given, read-out: HDAC Potene): 9000 to 16000 nM

CC(C)N(CCCNC(=O)Nc1ccc(C(C)(C)C)cc1)C[C@H]1O[C@@H](n2cc(Br)c3c(N)ncnc32)[C@H](O)[C@@H]1O [SGC0946]
Lit Cell [6]: 10 mM
Human In Vivo Conc [3]: 0.1-5 μM uM
Lgr5+ Assay ([2]; concentration range, Table 8): 0.6 to 5 µM

N[C@@H]1C[C@H]1c1ccccc1 [TCP]
Cmax ([3]; Table 9, in brackets under the ng/mL range, read-out: Human Plasma Conc.: Cmax): 225 to 1500 nM
Human Plasma Conc.: Cmax ([3]; Table 9): 30-200 ng/ml ng/mL

CCCCc1nc2cc(-c3cccnc3)c(C)nc2n1Cc1ccc(-c2ccccc2-c2nn[nH]n2)cc1 [TM-25659]
Lit Cell [7]: 10 to 100 µM

C=CCNc1nc(N)c(C(=O)c2ccc(F)s2)s1 [TT10]
Lit Cell [7]: 1 µM

CCCc1cc(C)[nH]c(=O)c1CNC(=O)c1cc(-c2ccc(N3CCN(C(C)C)CC3)nc2)cc2c1cnn2C(C)C [UN C1999, reference compound]
Lgr5+ Assay ([2]; Table 7, result in words): Active

CC(C)N(C[C@H]1O[C@@H](n2cnc3c(N)ncnc32)[C@H](O)[C@@H]1O)[C@H]1C[C@@H](CCc2nc3cc(C(C)(C)C)ccc3[nH]2)C1 [pinometostat]
Human In Vivo Conc: Total plasma Css ([3]; Table 8, in brackets under the ng/mL range): (1.42-2.94 uM)
Human In Vivo Conc [3]: (1-10 uM)
